According to patent publication US20180071281A1, “TREATING CHRONIC RHINOSINUSITIS” (Gerbe Labs Inc., priority 2016, published 2018):

How the values were obtained:
[1] = cited from earlier work; for systemic absorption: used topically
[2] = test system: S. aureus; assay: Culture from Patient 7, sensitivity of bacteria; format: cell-based; conditions: Patient 7 culture
From the text: The patient underwent the standard workup for CRS, sleep disorder, and nasal obstruction, plus our diagnostic skin test and sinus CT scan.

[3] = test system: chronic rhinosinusitis; assay: Case studies: patients with chronic rhinosinusitis treated with nebulized formulation; format: in vivo, human; conditions: particularly in combination with the compositions and formulations; vancomycin in cases where MRSA is present
From the text: In all of the following studies, the skin testing of Example 1 was used to identify the inhalant antigen or antigens responsible for triggering systemic inflammatory symptoms and the localized inflammatory sinus symptoms. The chronic rhinosinusitis of the patients was all successfully treated. Moreover, the patients also experienced resolution of systemic inflammatory symptoms.
Each of the patients avoided additional exposure to the fungal spores that were identified by the skin test. The patients ostia was dilated, and the formulation was administered with a nebulizer. Additionally, systemic anti-fungal medication directed toward the specific fungi was administered for 4-6 weeks, followed by intermittent nebulization with mometasone and 2% mupirocin powder, which has both anti-fungal and anti-bacterial properties. These treatments were administered every other day to every third day for several months with C-reactive protein (CRP} levels checked every 4-6 weeks to monitor change.
Patient 1 is a retired nurse who presented with chronic fatigue, chronic headaches, facial pain, and a sleep disorder characterized by Rapid Eye Movement (REM) sleep deprivation. The patient was a two pack/day smoker. […] The patient was treated with a formulation of 125 mg tobramycin, […]

[4] = test system: gram negative and gram positive organisms; conditions: cited from earlier work

| SMILES | safety ([1]; topical, nasal cavity and sinuses, approved for children under the age of 3) | systemic absorption [1] | oral absorption ([1]; orally) | sensitivity of cultured S. aureus [2] | effectiveness of the antibiotic [3] | activity against gram negative and gram positive organisms [4] |
| --- | --- | --- | --- | --- | --- | --- |
| C[C@@H]1C[C@H]2[C@@H]3CCC4=CC(=O)C=C[C@]4(C)[C@@]3(Cl)[C@@H](O)C[C@]2(C)[C@@]1(OC(=O)c1ccco1)C(=O)CCl [Mometasone furoate] | very safe | very little systemic absorption | – | – | – | – |
| NC[C@H]1O[C@H](O[C@H]2[C@H](O)[C@@H](O[C@H]3O[C@H](CO)[C@@H](O)[C@H](N)[C@H]3O)[C@H](N)C[C@@H]2N)[C@H](N)C[C@@H]1O [tobramycin] | – | not absorbed systemically | very, very poorly absorbed | sensitive | highly effective | excellent activity |
| CN[C@H](CC(C)C)C(=O)N[C@H]1C(=O)N[C@@H](CC(N)=O)C(=O)N[C@H]2C(=O)N[C@H]3C(=O)N[C@H](C(=O)N[C@H](C(=O)O)c4cc(O)cc(O)c4-c4cc3ccc4O)[C@H](O)c3ccc(c(Cl)c3)Oc3cc2cc(c3O[C@@H]2O[C@H](CO)[C@@H](O)[C@H](O)[C@H]2O[C@H]2C[C@](C)(N)[C@H](O)[C@H](C)O2)Oc2ccc(cc2Cl)[C@H]1O [vancomycin] | – | – | – | – | highly effective | – |
